The values that follow come from patent US20160158200A1, “Combinations of Hepatitis C Virus Inhibitors” (priority 2013, published 2016).

For this assay, the system named is HCV genotype-1a variant with glutamine 30 changed to glutamate in the NS5A protein. The format is cell-based. The conditions noted are these: test compound titrated with BMS-790052 fixed at 200 nM; genotype 1a Q30E replicon. The gist of the method:
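Synergy was assessed by combining several fixed amounts of an NS5A-targeting compound with a titration of the second compound of interest.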

With `COC(=O)N(C)[C@H](C(=O)N[C@H](c1ncc(-c2ccc(-c3ccc(-c4cnc([C@@H](NC(=O)[C@H](C(C)C)N(C)C(=O)OC)C(C)C)[nH]4)cc3)cc2)[nH]1)C(C)C)C(C)C` [Compound P-107], the “Fold-Synergistic 1a (Q30E)” value is greater than 100 fold.
Then `CC1(C)CC1C(=O)N[C@H](c1ncc(-c2ccc(-c3ccc(-c4cnc([C@@H](NC(=O)C5CC5(C)C)C(C)(C)C)[nH]4)cc3)cc2)[nH]1)C(C)(C)C` (single isomer, unassigned) [Compound B80], with greater than 100 fold; and `COCC(C)(C)C(=O)N[C@H](c1ncc(-c2ccc(-c3ccc(-c4cnc([C@@H](NC(=O)C(C)(C)COC)C(C)C)[nH]4)cc3)cc2)[nH]1)C(C)C` [Compound P-70], with greater than 100 fold.
Then `CC(C)(C)[C@H](NC(=O)C(=O)N(CCC#N)C1CC1)c1nc(-c2ccc(-c3ccc(-c4c[nH]c([C@@H](NC(=O)C(=O)N(CCC#N)C5CC5)C(C)(C)C)n4)cc3)cc2)c[nH]1` [Compound W-48], with greater than 100 fold; and `CC(C)[C@H](NC(=O)C1(CF)CC1)c1ncc(-c2ccc(-c3ccc(-c4cnc([C@@H](NC(=O)C5(CF)CC5)C(C)C)[nH]4)cc3)cc2)[nH]1` [Compound P-73], with greater than 100 fold.
Then `COc1cccc2c(C(=O)N3CCC[C@H]3c3ncc(-c4ccc(-c5ccc(-c6cnc([C@@H]7CCCN7C(=O)c7nccc8c(OC)cccc78)[nH]6)cc5)cc4)[nH]3)nccc12` [Compound S-201], with greater than 100 fold; and `CC(C)[C@H](NC(=O)c1cc(F)cc(F)c1)c1ncc(-c2ccc(-c3ccc(-c4cnc([C@@H](NC(=O)c5cc(F)cc(F)c5)C(C)C)[nH]4)cc3)cc2)[nH]1` [Compound Y-23], with greater than 100 fold.
Take `COc1ccc(C(=O)N[C@H](c2ncc(-c3ccc(-c4ccc(-c5cnc([C@@H](NC(=O)c6ccc(OC)c(OC)c6)C(C)C)[nH]5)cc4)cc3)[nH]2)C(C)C)cc1OC` [Compound S-78]: the “Fold-Synergistic 1a (Q30E)” value is recorded as greater than 100 fold.
Then `CC(C)(C(=O)N[C@H](c1nc(-c2ccc(-c3ccc(-c4c[nH]c([C@@H](NC(=O)C(C)(C)C(O)c5ccccn5)C(C)(C)C)n4)cc3)cc2)c[nH]1)C(C)(C)C)C(O)c1ccccn1` (single isomer, unassigned) [Compound N-128B], with greater than 100 fold; and `CC(C)[C@H](NC(=O)c1cnco1)c1ncc(-c2ccc(-c3ccc(-c4cnc([C@@H](NC(=O)c5cnco5)C(C)C)[nH]4)cc3)cc2)[nH]1` [Compound P-94], with greater than 10 fold.
Then `CO[C@H](C)[C@H](NC(=O)[C@@]1(C)CCC(F)(F)CO1)c1nc(-c2ccc(-c3ccc(-c4c[nH]c([C@@H](NC(=O)[C@@]5(C)CCC(F)(F)CO5)[C@@H](C)OC)n4)cc3)cc2)c[nH]1` [Compound L-97], with greater than 100 fold.
The value for `CC(C)(C)[C@H](NC(=O)c1ccc(Cl)cn1)c1nc(-c2ccc(-c3ccc(-c4c[nH]c([C@@H](NC(=O)c5ccc(Cl)cn5)C(C)(C)C)n4)cc3)cc2)c[nH]1` [Compound N-53] was greater than 100 fold; that for `CC(C)(C)OC(=O)NC1(C(=O)N[C@H](c2nc(-c3ccc(-c4ccc(-c5c[nH]c([C@@H](NC(=O)C6(NC(=O)OC(C)(C)C)CCC(=O)CC6)C(C)(C)C)n5)cc4)cc3)c[nH]2)C(C)(C)C)CCC(=O)CC1` [Compound W-233] was greater than 100 fold; that for `CC(C)(C)[C@H](NC(=O)C1CCC(F)(F)CC1)c1nc2ccc(-c3ccc(-c4ccc5nc([C@@H](NC(=O)C6CCC(F)(F)CC6)C(C)(C)C)[nH]c5c4)cc3)cc2[nH]1` [Compound B32] was greater than 100 fold.
As for `COC(c1ccccc1)C1(C(=O)N[C@H](c2nc(-c3ccc(-c4ccc(-c5c[nH]c([C@@H](NC(=O)C6(C(OC)c7ccccc7)CC6)C(C)(C)C)n5)cc4)cc3)c[nH]2)C(C)(C)C)CC1` (single isomer, unassigned) [Compound N-137B], the “Fold-Synergistic 1a (Q30E)” value is given as greater than 100 fold.
Then `COc1cccc(C(=O)N[C@H](c2ncc(-c3ccc(-c4ccc(-c5cnc([C@@H](NC(=O)c6cccc(OC)c6)C(C)C)[nH]5)cc4)cc3)[nH]2)C(C)C)c1` [Compound S-77], with greater than 100 fold; and `CC(C)(C)[C@H](NC(=O)[C@@]1(N)C[C@@H]1c1ccccc1)c1nc(-c2ccc(-c3ccc(-c4c[nH]c([C@@H](NC(=O)[C@@]5(N)C[C@@H]5c5ccccc5)C(C)(C)C)n4)cc3)cc2)c[nH]1` [Compound W-41], with greater than 100 fold; and `CC(C)(C)C(NC(=O)C1(C)CC1(F)F)c1nc(-c2ccc(-c3ccc(-c4c[nH]c(C(NC(=O)C5(C)CC5(F)F)C(C)(C)C)n4)cc3)cc2)c[nH]1` (single isomer, unassigned) [Compound L-58a], with greater than 100 fold.
Then `CC(C)(C(=O)N[C@H](c1ncc(-c2ccc(-c3ccc(-c4cnc([C@@H](NC(=O)C(C)(C)C5CCCC5)C(C)(C)C)[nH]4)cc3)cc2)[nH]1)C(C)(C)C)C1CCCC1` [Compound B82], with greater than 100 fold; and `CC1(C(=O)N[C@H](c2nc(-c3ccc(-c4ccc(-c5c[nH]c([C@@H](NC(=O)C6(C)CC6)C(C)(C)C)n5)cc4)cc3)c[nH]2)C(C)(C)C)CC1` [Compound L-45], with greater than 100 fold; and `O=C(C(=O)N1C(c2nc(-c3ccc(-c4ccc(-c5c[nH]c(C6CC7C[C@@H]7N6C(=O)C(=O)N6CCC(F)(F)CC6)n5)cc4)cc3)c[nH]2)C[C@@H]2CC21)N1CCC(F)(F)CC1` (stereo partly shown) [Compound W-243], with greater than 100 fold.
Take `CC(C)[C@H](NC(=O)C(C)(C)NC(=O)OC(C)(C)C)c1ncc(-c2ccc(-c3ccc(-c4cnc([C@@H](NC(=O)C(C)(C)NC(=O)OC(C)(C)C)C(C)C)[nH]4)cc3)cc2)[nH]1` [Compound Y-26]: the “Fold-Synergistic 1a (Q30E)” value is given as greater than 100 fold.
Then `CC(C)(OCC(F)(F)F)C(=O)N[C@H](c1nc(-c2ccc(-c3ccc(-c4c[nH]c([C@@H](NC(=O)C(C)(C)OCC(F)(F)F)C(C)(C)C)n4)cc3)cc2)c[nH]1)C(C)(C)C` [Compound Y-2], with greater than 100 fold; and `CC1([C@H](NC(=O)C(O)(CF)CF)c2nc(-c3ccc(-c4ccc(-c5c[nH]c([C@@H](NC(=O)C(O)(CF)CF)C6(C)CC6)n5)cc4)cc3)c[nH]2)CC1` [Compound N-141], with greater than 100 fold.
`CCCCC(=O)NC1(C(=O)N[C@H](c2nc(-c3ccc(-c4ccc(-c5c[nH]c([C@@H](NC(=O)C6(NC(=O)CCCC)CCCCC6)C(C)(C)C)n5)cc4)cc3)c[nH]2)C(C)(C)C)CCCCC1` [Compound W-253]: the “Fold-Synergistic 1a (Q30E)” value is greater than 100 fold.
Then `CC(C)(C)C(NC(=O)C(C)(C)C1CCCCO1)c1nc(-c2ccc(-c3ccc(-c4c[nH]c(C(NC(=O)C(C)(C)C5CCCCO5)C(C)(C)C)n4)cc3)cc2)c[nH]1` (mixture of isomers) [Compound P-153], with greater than 100 fold.
Then `CC(C)(C)[C@H](Nc1nc(Cl)c(Cl)s1)c1nc(-c2ccc(-c3ccc(-c4c[nH]c([C@@H](Nc5nc(Cl)c(Cl)s5)C(C)(C)C)n4)cc3)cc2)c[nH]1` [Compound W-179], with greater than 10 fold; and `CC(C)[C@H](NC(=O)c1cc2ccccc2o1)c1ncc(-c2ccc(-c3ccc(-c4cnc([C@@H](NC(=O)c5cc6ccccc6o5)C(C)C)[nH]4)cc3)cc2)[nH]1` [Compound S-87], with greater than 100 fold; and `CC(C)[C@H](NC(=O)C1CC1)c1ncc(-c2ccc(-c3ccc(-c4cnc([C@@H](NC(=O)C5CC5)C(C)C)[nH]4)cc3)cc2)[nH]1` [Compound S-20], with greater than 100 fold.
The value for `CC(C)[C@H](NC(=O)CC(c1ccccc1)c1ccccc1)c1ncc(-c2ccc(-c3ccc(-c4cnc([C@@H](NC(=O)CC(c5ccccc5)c5ccccc5)C(C)C)[nH]4)cc3)cc2)[nH]1` [Compound S-30] was greater than 100 fold; that for `CC(C)[C@H](NC(=O)OCC(C)(C)C)c1ncc(-c2ccc(-c3ccc(-c4cnc([C@@H](NC(=O)OCC(C)(C)C)C(C)C)[nH]4)cc3)cc2)[nH]1` [Compound S-210] was greater than 100 fold; that for `CC1(C(NC(=O)C(C)(C)C(O)C2CC2)c2nc(-c3ccc(-c4ccc(-c5c[nH]c(C(NC(=O)C(C)(C)C(O)C6CC6)C6(C)CC6)n5)cc4)cc3)c[nH]2)CC1` (mixture of isomers) [Compound N-150] was greater than 100 fold.
Regarding `CC(C)[C@H](NC(=O)C(C)(C)C)c1nc(-c2ccc(-c3ccc(-c4c[nH]c([C@@H](NC(=O)C(C)(C)C)C(C)C)n4)cn3)cc2)c[nH]1.O=C(O)C(F)(F)F` [Compound N-103], the “Fold-Synergistic 1a (Q30E)” value is listed as greater than 100 fold.
The value for `CC(C)N(C(=O)C(=O)N[C@H](c1nc(-c2ccc(-c3ccc(-c4c[nH]c([C@@H](NC(=O)C(=O)N(C(C)C)C5CC5)C5(C)CC5)n4)cc3)cc2)c[nH]1)C1(C)CC1)C1CC1` [Compound W-58] was greater than 100 fold; that for `CC(C)(C)[C@H](NC(=O)[C@@H]1C[C@@H](F)CN1)c1nc(-c2ccc(-c3ccc(-c4c[nH]c([C@@H](NC(=O)[C@@H]5C[C@@H](F)CN5)C(C)(C)C)n4)cc3)cc2)c[nH]1` [Compound W-101, (2S,2'S,4R,4′R)—N,N′-((1S,1′S)-(4,4′-([1,1′-biphenyl]-4,4′-diyl)bis(1H-imidazole-4,2-diyl))bis(2,2-dimethylpropane-1,1-diyl))bis(4-fluoropyrrolidine-2-carboxamide)] was greater than 10 fold; that for `COC1CC(C(=O)NC(c2nc(-c3ccc(-c4ccc(-c5c[nH]c(C(NC(=O)C6CC(OC)C6)C(C)(C)C)n5)cc4)cc3)c[nH]2)C(C)(C)C)C1` [Compound L-54] was greater than 100 fold.
The value for `CC(C)(C)[C@H](NC(=O)C1(CF)CCC(F)(F)CC1)c1nc(-c2ccc(-c3ccc(-c4c[nH]c([C@@H](NC(=O)C5(CF)CCC(F)(F)CC5)C(C)(C)C)n4)cc3)cc2)c[nH]1` [Compound P-38] was greater than 100 fold.
